The record followed here is US5374713A, “Peptide inhibitors of phospholipase A2 purified from inflammatory sites” (Teijin Limited, priority 1990, dated 1994).

Ends that are not written are not given here.

Experiment [1] concerns the target T1, phospholipase A2 from human inflammatory sites (the joint fluid from patients with rheumatoid arthritis) (Homo sapiens, UniProt P14555).
T1 construct: from human inflammatory sites (the joint fluid from patients with rheumatoid arthritis); from tissue; host or cells: joint fluid from patients with rheumatoid arthritis
T1 sequence (P14555 21-144): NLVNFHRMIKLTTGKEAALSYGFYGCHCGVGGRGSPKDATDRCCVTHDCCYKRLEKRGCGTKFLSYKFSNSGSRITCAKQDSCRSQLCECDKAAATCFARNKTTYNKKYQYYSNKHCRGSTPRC
The experiment is described as follows: Determination of inhibitory activity against phospholipase A2 (human inflammatory sites). It counts as biochemical. Particulars: phosphatidylethanolamine substrate, pH 9.0, 37° C., 10 minutes. Here is the method: (§1) The activity-measuring system was prepared by adding distilled water to 100 mM Tris-HCl (ph 9.0), 4 mM calcium chloride, 0.1 mM phosphatidylethanolamine (2,000 dpm/nmol), and 10 μl sample to adjust the total volume to 240 μl, and finally 10 μl of 0.1 ng/μ1 phospholipase A2 was added. The phospholipases A2 used were from human inflammatory sites (the joint fluid from patients with rheumatoid arthritis) (Hara et al., J. Biochem., 104, 326-328, 1988), rat inflammatory sites (Chang et al., J. Biochem., 102, 147-154, 1987), and porcine pancreas (Boehringer Manheim Co.). Phosphatidylethanolamine was purified from Escherichia coli cultured in a medium to which acetic acid was added.
(§2) The reactions were conducted at 37° C. with stirring for 10 minutes. The termination of the reaction and the extraction of fatty acids generated were carried out by the Dole's method (Dole et al., J. Biol. Chem., 235, 2595-2599, 1960) and the extracted fatty acid was determined with a scintillation counter.
(§3) The lyophilyzed sample obtained in Example 1 was dissolved again in 50% acetone-0.1% trifluoroacetic acid to adjust the concentration to 10 mg/ml. The solution was further diluted stepwise with the same buffer and the inhibitory activity of phospholipase A2 from inflammatory sites was determined at individual concentrations.

For experiment [2], the target named is T2, phospholipase A2 from rat inflammatory sites (Rattus norvegicus, UniProt P14423).
T2 construct: rat inflammatory sites (Chang et al., J. Biochem., 102, 147-154, 1987); from tissue
T2 sequence (P14423 22-146): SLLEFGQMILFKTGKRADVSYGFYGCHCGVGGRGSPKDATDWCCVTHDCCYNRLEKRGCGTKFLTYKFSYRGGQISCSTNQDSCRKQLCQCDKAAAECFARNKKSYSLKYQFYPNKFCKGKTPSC
The experiment is described as follows: Determination of inhibitory activity against phospholipase A2 (rat inflammatory sites). It counts as biochemical. Particulars: phosphatidylethanolamine substrate, pH 9.0, 37° C., 10 minutes. As to the method: as §1, §2, §3

In general, IC50 refers to the midpoint of a concentration-inhibition curve. For QKDAPDHQELNLDVSLQLPSR, the concentration for half-maximal inhibition (IC50) in experiment [1] and in experiment [2] was about 500 nM throughout.
